Source: patent publication US20210047304A1, “Bromodomain Inhibitors” (AbbVie Inc., priority 2016, published 2021)

target: BRD4 (BDI_K57-E168) (Homo sapiens, UniProt O60885); assay: TR-FRET bromodomain binding assay, BRD4 BDI

`Cc1cc(F)cc(C)c1Oc1ccc(C(C)(C)O)cc1-c1cn(C)c(=O)cc1O[C@H]1CC[C@H](N2C(=O)O[C@@H](C)C2=O)CC1` [Example 92, (5S)-3-[trans-4-({5-[2-(4-fluoro-2,6-dimethylphenoxy)-5-(2-hydroxypropan-2-yl)phenyl]-1-methyl-2-oxo-1,2-dihydropyridin-4-yl}oxy)cyclohexyl]-5-methyl-1,3-oxazolidine-2,4-dione] and `Cc1cc(F)cc(C)c1Oc1ccc(C(C)(C)O)cc1-c1cn(C)c(=O)cc1O[C@H]1CC[C@H](N2NCCC2=O)CC1` [Example 109, 5-[2-(4-fluoro-2,6-dimethylphenoxy)-5-(2-hydroxypropan-2-yl)phenyl]-1-methyl-4-{[trans-4-(5-oxopyrazolidin-1-yl)cyclohexyl]oxy}pyridin-2(1H)-one] cannot be ordered by Ki: over 13 µM for the first, over 13 µM for the second.

First: Cc1cc(F)cc(C)c1Oc1ccc(C(C)(C)O)cc1-c1cn(C)c(=O)cc1O[C@H]1C[C@@H](C(C)(C)O)C1 [Example 94, 5-[2-(4-fluoro-2,6-dimethylphenoxy)-5-(2-hydroxypropan-2-yl)phenyl]-4-{[cis-3-(2-hydroxypropan-2-yl)cyclobutyl]oxy}-1-methylpyridin-2(1H)-one]
Second: Cc1cc(F)cc(C)c1Oc1ccc(C(C)(C)O)cc1-c1cn(C)c(=O)cc1O[C@H]1C[C@@H](C(=O)O)C1 [Example 97, cis-3-({5-[2-(4-fluoro-2,6-dimethylphenoxy)-5-(2-hydroxypropan-2-yl)phenyl]-1-methyl-2-oxo-1,2-dihydropyridin-4-yl}oxy)cyclobutane-1-carboxylic acid]
The Ki of the first is 5.7-fold lower: 1.67 µM for the first, 9.53 µM for the second.

Going from `CCNC(=O)[C@H]1C[C@@H](Oc2cc(=O)n(C)cc2-c2cc(C(C)(C)O)ccc2Oc2c(C)cc(F)cc2C)C1` [Example 95, cis-N-ethyl-3-({5-[2-(4-fluoro-2,6-dimethylphenoxy)-5-(2-hydroxypropan-2-yl)phenyl]-1-methyl-2-oxo-1,2-dihydropyridin-4-yl}oxy)cyclobutane-1-carboxamide] to `CC(=O)N[C@H]1C[C@H](Oc2cc(=O)n(C)cc2-c2cc(C(C)(C)O)ccc2Oc2c(C)cc(F)cc2C)C1` [Example 100, N-[trans-3-({5-[2-(4-fluoro-2,6-dimethylphenoxy)-5-(2-hydroxypropan-2-yl)phenyl]-1-methyl-2-oxo-1,2-dihydropyridin-4-yl}oxy)cyclobutyl]acetamide], the Ki falls from 1.58 µM to 0.719 µM (2.2-fold).

Compared with `Cc1cc(F)cc(C)c1Oc1ccc(C(C)(C)O)cc1-c1cn(C)c(=O)cc1O[C@H]1C[C@@H](C(=O)N2CCCC2)C1` [Example 96, 5-[2-(4-fluoro-2,6-dimethylphenoxy)-5-(2-hydroxypropan-2-yl)phenyl]-1-methyl-4-{[cis-3-(pyrrolidine-1-carbonyl)cyclobutyl]oxy}pyridin-2(1H)-one], `Cc1cc(F)cc(C)c1Oc1ccc(C(C)(C)O)cc1-c1cn(C)c(=O)cc1O[C@H]1CC[C@H](C(N)=O)CC1` [Example 102, trans-4-({5-[2-(4-fluoro-2,6-dimethylphenoxy)-5-(2-hydroxypropan-2-yl)phenyl]-1-methyl-2-oxo-1,2-dihydropyridin-4-yl}oxy)cyclohexane-1-carboxamide] is 1.8-fold higher in Ki: 2.2 µM for the first, 4 µM for the second.

Compared with `CC(=O)N(N)[C@H]1CC[C@H](Oc2cc(=O)n(C)cc2-c2cc(C(C)(C)O)ccc2Oc2c(C)cc(F)cc2C)CC1` [Example 98, N-[trans-4-({5-[2-(4-fluoro-2,6-dimethylphenoxy)-5-(2-hydroxypropan-2-yl)phenyl]-1-methyl-2-oxo-1,2-dihydropyridin-4-yl}oxy)cyclohexyl]acetohydrazide], `Cc1cc(F)cc(C)c1Oc1ccc(C(C)(C)O)cc1-c1cn(C)c(=O)cc1O[C@H]1CC[C@H](C(=O)N(C)C)CC1` [Example 108, trans-4-({5-[2-(4-fluoro-2,6-dimethylphenoxy)-5-(2-hydroxypropan-2-yl)phenyl]-1-methyl-2-oxo-1,2-dihydropyridin-4-yl}oxy)-N,N-dimethylcyclohexane-1-carboxamide] is 4.8-fold higher in Ki: 1.14 µM for the first, 5.44 µM for the second.

Going from `CC(=O)NN[C@H]1CC[C@@H](Oc2cc(=O)n(C)cc2-c2cc(C(C)(C)O)ccc2Oc2c(C)cc(F)cc2C)CC1` [Example 99, N′-[cis-4-({5-[2-(4-fluoro-2,6-dimethylphenoxy)-5-(2-hydroxypropan-2-yl)phenyl]-1-methyl-2-oxo-1,2-dihydropyridin-4-yl}oxy)cyclohexyl]acetohydrazide] to `CC(=O)NN[C@H]1CC[C@H](Oc2cc(=O)n(C)cc2-c2cc(C(C)(C)O)ccc2Oc2c(C)cc(F)cc2C)CC1` [Example 105, N′-[trans-4-({5-[2-(4-fluoro-2,6-dimethylphenoxy)-5-(2-hydroxypropan-2-yl)phenyl]-1-methyl-2-oxo-1,2-dihydropyridin-4-yl}oxy)cyclohexyl]acetohydrazide], the Ki falls from 10.4 µM to 2.16 µM (4.8-fold). The second binds more tightly here.

`CNC(=O)[C@H]1CC[C@H](Oc2cc(=O)n(C)cc2-c2cc(C(C)(C)O)ccc2Oc2c(C)cc(F)cc2C)CC1` [Example 101, trans-4-({5-[2-(4-fluoro-2,6-dimethylphenoxy)-5-(2-hydroxypropan-2-yl)phenyl]-1-methyl-2-oxo-1,2-dihydropyridin-4-yl}oxy)-N-methylcyclohexane-1-carboxamide] and `Cc1cc(F)cc(C)c1Oc1ccc(C(C)(C)O)cc1-c1cn(C)c(=O)cc1O[C@H]1CC[C@H](NC(=O)C(F)(F)F)CC1` [Example 117, 2,2,2-trifluoro-N-[trans-4-({5-[2-(4-fluoro-2,6-dimethylphenoxy)-5-(2-hydroxypropan-2-yl)phenyl]-1-methyl-2-oxo-1,2-dihydropyridin-4-yl}oxy)cyclohexyl]acetamide] are within 1.5-fold of each other in Ki: 3.53 µM for the first, 3.57 µM for the second.

First: Cc1cc(F)cc(C)c1Oc1ccc(C(C)(C)O)cc1-c1cn(C)c(=O)cc1O[C@H]1CC[C@H](NC(=O)C2(CNC(=O)OC(C)(C)C)CC2)CC1 [Example 104, tert-butyl [(1-{[trans-4-({5-[2-(4-fluoro-2,6-dimethylphenoxy)-5-(2-hydroxypropan-2-yl)phenyl]-1-methyl-2-oxo-1,2-dihydropyridin-4-yl}oxy)cyclohexyl]carbamoyl}cyclopropyl)methyl]carbamate]
Second: Cc1cc(F)cc(C)c1Oc1ccc(C(C)(C)O)cc1-c1cn(C)c(=O)cc1O[C@H]1CC[C@H](NNC(=O)OC(C)(C)C)CC1 [Example 106, tert-butyl 2-[trans-4-({5-[2-(4-fluoro-2,6-dimethylphenoxy)-5-(2-hydroxypropan-2-yl)phenyl]-1-methyl-2-oxo-1,2-dihydropyridin-4-yl}oxy)cyclohexyl]hydrazine-1-carboxylate]
The Ki of the first is higher: over 13 µM for the first, 3.41 µM for the second. The second binds more tightly here.

`Cc1cc(F)cc(C)c1Oc1ccc(C(C)(C)O)cc1-c1cn(C)c(=O)cc1O[C@H]1CC[C@@H](NNC(=O)OC(C)(C)C)CC1` [Example 107, tert-butyl 2-[cis-4-({5-[2-(4-fluoro-2,6-dimethylphenoxy)-5-(2-hydroxypropan-2-yl)phenyl]-1-methyl-2-oxo-1,2-dihydropyridin-4-yl}oxy)cyclohexyl]hydrazine-1-carboxylate] and `Cc1cc(F)cc(C)c1Oc1ccc(C(C)(C)O)cc1-c1cn(C)c(=O)cc1O[C@H]1CC[C@H](NC(=O)CC(C)(C)CO)CC1` [Example 118, N-[trans-4-({5-[2-(4-fluoro-2,6-dimethylphenoxy)-5-(2-hydroxypropan-2-yl)phenyl]-1-methyl-2-oxo-1,2-dihydropyridin-4-yl}oxy)cyclohexyl]-4-hydroxy-3,3-dimethylbutanamide] are within 1.5-fold of each other in Ki: 1.79 µM for the first, 1.91 µM for the second.

Compared with `Cc1cc(F)cc(C)c1Oc1ccc(C(C)(C)O)cc1-c1cn(C)c(=O)cc1O[C@H]1CC[C@H](NC(=O)C2(C(N)=O)CC2)CC1` [Example 111, N-[trans-4-({5-[2-(4-fluoro-2,6-dimethylphenoxy)-5-(2-hydroxypropan-2-yl)phenyl]-1-methyl-2-oxo-1,2-dihydropyridin-4-yl}oxy)cyclohexyl]cyclopropane-1,1-dicarboxamide], `Cc1cc(F)cc(C)c1Oc1ccc(C(C)(C)O)cc1-c1cn(C)c(=O)cc1O[C@H]1CC[C@H](NC(=O)CCC(C)(C)O)CC1` [Example 119, N-[trans-4-({5-[2-(4-fluoro-2,6-dimethylphenoxy)-5-(2-hydroxypropan-2-yl)phenyl]-1-methyl-2-oxo-1,2-dihydropyridin-4-yl}oxy)cyclohexyl]-4-hydroxy-4-methylpentanamide] is 2.4-fold higher in Ki: 1.19 µM for the first, 2.81 µM for the second. The first binds more tightly here.

`CC(=O)N1CCC(=O)N1[C@H]1CC[C@H](Oc2cc(=O)n(C)cc2-c2cc(C(C)(C)O)ccc2Oc2c(C)cc(F)cc2C)CC1` [Example 112, 4-{[trans-4-(2-acetyl-5-oxopyrazolidin-1-yl)cyclohexyl]oxy}-5-[2-(4-fluoro-2,6-dimethylphenoxy)-5-(2-hydroxypropan-2-yl)phenyl]-1-methylpyridin-2(1H)-one] and `Cc1cc(F)cc(C)c1Oc1ccc(C(C)(C)O)cc1-c1cn(C)c(=O)cc1O[C@H]1CC[C@H](n2nccc2O)CC1` [Example 114, 5-[2-(4-fluoro-2,6-dimethylphenoxy)-5-(2-hydroxypropan-2-yl)phenyl]-4-{[trans-4-(5-hydroxy-1H-pyrazol-1-yl)cyclohexyl]oxy}-1-methylpyridin-2(1H)-one] are within 1.5-fold of each other in Ki: 4.86 µM for the first, 4.66 µM for the second.

Compared with `CNC(=O)N(C)Cc1ccc(Oc2c(C)cccc2C)c(-c2cn(C)c(=O)cc2O[C@H]2CC[C@H](NC(=O)C3(C)CC3)CC2)c1` [Example 113, N-[trans-4-({5-[2-(2,6-dimethylphenoxy)-5-{[methyl(methylcarbamoyl)amino]methyl}phenyl]-1-methyl-2-oxo-1,2-dihydropyridin-4-yl}oxy)cyclohexyl]-1-methylcyclopropane-1-carboxamide], `Cc1cccc(C)c1Oc1ccc(CN(C)C(N)=O)cc1-c1cn(C)c(=O)cc1O[C@H]1CC[C@H](NC(=O)C2(C)CC2)CC1` [Example 115, N-[trans-4-({5-[5-{[carbamoyl(methyl)amino]methyl}-2-(2,6-dimethylphenoxy)phenyl]-1-methyl-2-oxo-1,2-dihydropyridin-4-yl}oxy)cyclohexyl]-1-methylcyclopropane-1-carboxamide] is 2.1-fold lower in Ki: 6.06 µM for the first, 2.92 µM for the second.

In the case of `CC(=O)N([C@H](C)c1ccc(Oc2c(C)cccc2C)c(-c2cn(C)c(=O)cc2O[C@H]2CC[C@H](NC(=O)C3(C)CC3)CC2)c1)[C@@H](C)c1ccccc1` [Example 116, N-{trans-4-[(5-{5-[(1R)-1-{acetyl[(1S)-1-phenylethyl]amino}ethyl]-2-(2,6-dimethylphenoxy)phenyl}-1-methyl-2-oxo-1,2-dihydropyridin-4-yl)oxy]cyclohexyl}-1-methylcyclopropane-1-carboxamide], the Ki is reported as over 13 µM.
